The assay deals with mesenteric vascular bed. The assay is described as follows: In vitro arteries relaxation test (perfused mesenteric vascular bed pre-contracted with noradrenaline). Further details: species or system Wistar mice. The conditions noted are these: inferred from HPLC-MSMS/CCD of EHA and fraction 4 with FIGS. 6a and 6e; component not tested alone. How it is done:
The vasodilatory activity of EHA and/or its fractions was determined and quantified by ID50 (Inhibitory Dose at 50%) in preparation of the mesenteric arterial bed of male and adult Wistar mice, in vitro. After anesthesia (thiopental, […] ip), a broad laparotomy is performed to the mice in order to expose the entire mesenteric circulation. The mesenteric artery was isolated and cannulated with cannula and polyethylene. Immediately 1 to 2 ml of Krebs nourishing solution with heparin was injected in order to avoid mesenteric intravascular coagulation. The mesenteric vascular bed was dissected, placed in a heated tub and perfused with Krebs solution at 37° C., by peristaltic pump (4 ml/minute). The perfusion pressure was recorded continuously in computer, through program (PowerLab 4/30). After a period of equilibration, it was added (30 μM) noradrenaline in the Krebs fluid in order to raise the vascular tone of the mesenteric vascular bed. Once the noradrenaline constant pressure response was obtained in the mesenteric vascular bed, increasing doses of EHA and/or fractions in the mesenteric vascular bed were injected. Perfusion pressure reductions induced by extracts and/or fractions were analyzed by the computer and expressed as reduction percent of noradrenaline-induced pressure response. […]

In the case of `Oc1cc(O)c2c(c1)O[C@H](c1ccc(O)c(O)c1)[C@H](O)[C@H]2c1c(O)cc(O)c2c1O[C@H](c1ccc(O)c(O)c1)[C@H](O)C2` [procyanidin B2], the “activity of extract component inferred from chromatogram and artery relaxation test” value is reported as “compound with the highest activity”.

Source of the values: patent US12029774B2, “Açai berry seed extract, fractions of açai berry seed extracts, process for obtaining açai berry seed extracts, pharmaceutical and food compositions and method for the treatment of diseases or disorders with açai berry seed extract” (Power Seed Comércio e Representações Ltda, priority 2018, dated 2024).
